We go through one compound from publication PMC9946977, “Identification of linderalactone as a natural inhibitor of SHP2 to ameliorate CCl4-induced liver fibrosis” (Frontiers in Pharmacology, 2023).

As usually defined, the IC50 is the concentration that inhibits the measured activity by half.

For test [1], the system named is TGF-β/Smad pathway. As to the kind of experiment: CCl4 mouse model: liver TGF-β/Smad signalling (real-time PCR, Western blot). The format is in vivo, C57BL/6 mice. The procedure: C57BL/6 mice (20 ± 2 g) were obtained from Hangzhou Medical College Experimental Animal Center (Hangzhou, China). The animals were maintained under controlled temperature (22°C ± 1°C), humidity (50%), and light (12 h light/12 h dark). The animals were fed a standard laboratory diet and provided with free access to tap water. All animals received humane care according to institutional animal care guidelines approved by the Experimental Animal Ethical Committee of Hangzhou Medical College. Forty mice were randomly divided into six groups: (1) vehicle control (n = 7); (2) CCl4 model (n = 7); (3) CCl4 + LIN (20 mg/kg) (n = 7); (4) CCl4 + LIN (40 mg/kg) (n = 7); (5) LIN (40 mg/kg) (n = 7); and (6) CCl4 + silymarin (SIL) (200 mg/kg) (n = 5). LIN and SIL were dissolved in 0.5% CMC-Na solution. Mice were administered LIN or SIL (intragastric administration, i.g.) once per day and CCl4 (intraperitoneal injection, i.p.; mixed 1:3 in olive oil, 2 mL/kg) twice per week for 4 weeks. Mice in the vehicle control group received olive oil (i.p. twice a week, 4 weeks) and 0.5% CMC-Na (i.g. every day, 4 weeks). After treatment, the mice were sacrificed, and plasma and liver tissues were collected and further analysed.
Total RNA was extracted from liver tissues and LX-2 cells using the TRIzol reagent. cDNA was synthesised using a PrimeScript RT Master Mix kit. Real-time PCR was performed using SYBR Green premix according to the manufacturer’s instructions. Relative expression of target genes was normalised to actin, analysed by the delta-delta-CT method and given as a ratio compared with the vehicle control. Primer sequences used in this study are listed in Supplementary Material.
Liver proteins were isolated by using a lysis buffer containing 50 mM Tris-HCl (pH7.5), 150 mM NaCl, 1 mM EDTA, 20 mM NaF, 0.5% NP-40, 10% glycerol, 1 mM phenylmethylsulphonyl fluoride, 10 μg/mL aprotinin, 10 μg/mL leupeptin, and 10 μg/mL pepstatin. The supernatants were collected after centrifugation at 3,000 g for 10 min at 4°C, and the protein concentration of each sample was determined and normalised to the same protein concentration. Protein samples were separated by sodium dodecyl sulphate-polyacrylamide gel electrophoresis and transferred onto polyvinylidene fluoride membranes. The membranes were incubated with the indicated primary and secondary antibodies, and the proteins in the membranes were visualised using a chemiluminescence kit. TGF-® antibody (CST, 3711), Smad 2/3 antibody (CST, 8685), p-Smad 2/3 antibody (CST, 8828), anti-α-SMA antibody (Santa Cruz, SC-53142), vimentin antibody (ABclonal, A19607), desmin antibody (ABclonal, A3736), GAPDH antibody (Beyotime, AF0006), and SHP2 antibody (CST, 3397). […]
Background: Real-time PCR tracks product formation cycle by cycle.

For test [2], the target named is T1, SHP2 PTP domain (Homo sapiens, UniProt Q06124).
T1 construct: Human SHP2 PTP domain (A237–I529) expression constructs; His-tag; made in house; host or cells: E. coli BL21 (DE3)
T1 sequence (Q06124 237-529): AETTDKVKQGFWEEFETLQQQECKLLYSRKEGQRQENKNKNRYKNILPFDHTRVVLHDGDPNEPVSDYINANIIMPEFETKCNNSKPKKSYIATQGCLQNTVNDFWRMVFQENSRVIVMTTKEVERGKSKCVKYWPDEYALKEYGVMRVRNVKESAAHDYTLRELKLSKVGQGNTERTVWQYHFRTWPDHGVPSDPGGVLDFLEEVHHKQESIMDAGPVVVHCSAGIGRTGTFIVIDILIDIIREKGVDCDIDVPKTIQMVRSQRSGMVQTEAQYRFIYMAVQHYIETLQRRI
The test can be described thus: SHP2 inhibition assay (DiFMUP) with SHP2-PTP; HTS and dose-response. Format: biochemical. The protocol: Human SHP2 PTP domain (A237–I529) expression constructs were engineered by cloning PTPN11 (NP_002825.3) into the pET30 plasmid with a His-tag to support further protein purification. The K366A/Q510A double mutation was introduced into the wild-type template using a site-directed mutagenesis kit (E0554S; New England Biolabs). The expression constructs were sequenced and transformed into BL21 (DE3)-competent cells. E. coli cells were grown at 37°C in an LB culture medium in the presence of […] kanamycin until the OD600 reached 1.0. The medium was then cooled to 18°C and 1 mM isopropyl ß-D-1-thiogalactopyranoside (IPTG) was added to induce protein expression overnight.
A surrogate phosphatase substrate, 6,8-difluoro-4-methylumbelliferyl phosphate (DiFMUP, Thermo Fisher, #D22065), was used to monitor the catalytic activity of SHP2 in a prompt fluorescence assay format. Specifically, the DiFMUP phosphatase assay was performed at 20°C in a 384-well Griener CELLSTAR black polystyrene plate in the buffer condition of 60 mM HEPES (pH7.5), 75 mM NaCl, 75 mM KCl, 1 mM EDTA, 0.05% Tween-20, 5 mM dithiothreitol (DTT). The final reaction volume was 25 μL. NP compound libraries were obtained from TargetMol at a stock concentration of 10 mM, dissolved in DMSO. The purity of the active compound LIN used in this study is 96.27% as tested by HPLC analysis. The HPLC traces is shown in Supporting Information. We co-incubated 0.5 nM of SHP2-PTP enzyme with tested NPs for 30 min at 20°C, followed by the addition of DiFMUP into the reaction. After 30 min, 5 μL of bpV(phen) solution was added to quench the dephosphorylation reaction. The signals were read on a plate reader (SpectraMax iD5, Molecular Devices). The excitation and emission wavelengths were 340 and 450 nm, respectively. The inhibitor dose-response curves were evaluated using a normalised IC50 regression curve fitting with control-based normalisation. For the full-length SHP2 inhibition assay, 0.5 μM of a bisphosphorylated pIRS-1 peptide (ChinaPeptides Ltd. Shanghai) was added for partial SHP2 activation. […]

On to `C/C1=C\CCC2=C[C@@H](OC2=O)c2c(C)coc2C1` [LIN, linderalactone], for which the “hepatic TGF-β protein expression” value in test [1] (CCl4 mice, LIN 40 mg/kg, Western blot) is reported as “reduced”. Moreover, the “hepatic TGF-β mRNA expression” value in test [1] (CCl4 mice, LIN 40 mg/kg, real-time PCR) is given as “reduced”. Besides, the “Smad2/3 phosphorylation in the liver” value in test [1] (CCl4 mice, Western blot) is “significantly inhibited”. Also, the “expression level of SHP2 protein” value in test [1] (liver (Figure 4D) and LX-2 cells (Figure S2), Western blot) is listed as “do not affect”. In addition, the half-maximal inhibitory concentration (IC50) in test [2] (0.5 nM SHP2-PTP, DiFMUP substrate, 30 min co-incubation at 20°C, read-out: IC50 against the SHP2 PTP domain) worked out at 1870 ± 850 nM. The “inhibitory activity in verification experiment of initial hits” value in test [2] (dose-response confirmation of HTS hits) is “best inhibitory activity among the screened hits”.
